According to patent US6444617B1, “Fused-heterocycle dicarboxylic acid diamide derivatives or salts thereof, herbicide and usage thereof” (Nihon Nohyaku Co., Ltd., priority 1998, dated 2002):

How the values were obtained:
Format in all cases: in vivo
[1] = system: bulrush (Scirpus juncoides Roxb.); experiment: Test Example 1: herbicidal effect on paddy field weeds before emergence; details: Dosage 5 kg/ha
Outline: (§1)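 Grading reflects percent control relative to untreated plots, evaluated three weeks post-application. Treatment was a soil application of compound solution, predetermined dose, made to paddy-state pots before weed seeds germinated.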

[2] = system: barnyard grass (Echinochloa crus-galli Beauv.); experiment: as above; details: Dosage 5 kg/ha
Outline: as §1

[3] = system: velvetleaf (Abutilon theophtasti L.), At; experiment: Test Example 3: herbicidal effect on upland weeds before emergence; details: dosage 5 kg/ha
Outline: (§2)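 Steps: sow upland weed seeds; spray liquid formulation of active ingredient at prescribed concentration prior to emergence; after 14 days, calculate weed-killing rate; judge herbicidal effect.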

[4] = system: forxtail grass (Alopecurus aequalis var. amurensis Ohwi), Am; experiment: as above; details: foxtail grass, dosage 5 kg/ha
Outline: as §2

[5] = system: cocklebur (Xanthium strumarium L.), Xs; experiment: as above; details: dosage 5 kg/ha
Outline: as §2

[6] = system: barnyard grass (Echinochloa crus-galli Beauv.), Ec; experiment: as above; details: dosage 5 kg/ha
Outline: as §2

[7] = system: bird's eye speedwell (Veronica persica Poir.), Vp; experiment: as above; details: dosage 5 kg/ha
Outline: as §2

[8] = system: cleavers (Galium aparine L.), Ga; experiment: as above; details: dosage 5 kg/ha
Outline: as §2

[9] = system: bulrush (Scirpus juncoides Roxb.); experiment: Test Example 2: herbicidal effect on paddy field weeds after emergence; details: Dosage 5 kg/ha; one-leaved stage; 21 days after treatment
Outline: (§3)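 Weeds were sown in 1/10000 are pots of soil flooded to paddy conditions and grown to the one-leaf stage, then the soil was treated with a solution of compound at a predetermined dosage.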

[10] = system: monochoria (Monochoria vaginalis Presl); experiment: as above; details: Dosage 5 kg/ha; one-leaved stage; 21 days after treatment
Outline: as §3

[11] = system: barnyard grass (Echinochloa crus-galli Beauv.); experiment: as above; details: Dosage 5 kg/ha; one-leaved stage; 21 days after treatment
Outline: as §3

wheat (Wh) = experiment: Test Example 3: phytotoxicity to upland crop plants, treatment before emergence; details: dosage 5 kg/ha
Outline: (§4)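 Pre-emergence spray, test compound at prescribed conc. in liquid formulation; crop injury (soybean, wheat) read at day 14, scored by criterion.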

soybean plant (So) = experiment: as above; details: dosage 5 kg/ha
Outline: as §4

soybean plant = experiment: Test Example 4: phytotoxicity to upland crop plants, treatment after emergence; details: dosage 5 kg/ha, sprayed after emergence, judged 14 days after treatment
Outline: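 Weeds, soybean and wheat were sown in soil-filled vats, covered with soil and grown to set leaf stages before a post-emergence spray of an agent containing the compound at a prescribed concentration. Weed-killing rate and crop phytotoxicity were assessed 14 days after treatment.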

wheat = experiment: as above; details: dosage 5 kg/ha, sprayed after emergence, judged 14 days after treatment
Outline: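 Scores of weed-killing rate, with crop phytotoxicity, come from inspection 14 days after plants in soil vats, grown to specified leaf stages, are sprayed with a formulation holding the compound at a prescribed concentration.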

[12] = system: velvetleaf (Abutilon theophtasti L.), At; experiment: Test Example 4: herbicidal effect on upland weeds after emergence; details: dosage 5 kg/ha; sprayed after emergence; judged 14 days after treatment
Outline: (§5)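 Post-emergence foliar spray, compound at prescribed concentration, applied at defined leaf stages; weeds plus soybean/wheat grown in soil vats. Read-out: weed-killing rate and crop injury, 14 d post-treatment.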

[13] = system: forxtail grass (Alopecurus aequalis var. amurensis Ohwi), Am; experiment: as above; details: dosage 5 kg/ha; sprayed after emergence; judged 14 days after treatment
Outline: as §5

[14] = system: cocklebur (Xanthium strumarium L.), Xs; experiment: as above; details: dosage 5 kg/ha; sprayed after emergence; judged 14 days after treatment
Outline: as §5

[15] = system: barnyard grass (Echinochloa crus-galli Beauv.), Ec; experiment: as above; details: dosage 5 kg/ha; sprayed after emergence; judged 14 days after treatment
Outline: as §5

[16] = system: bird's eye speedwell (Veronica persica Poir.), Vp; experiment: as above; details: dosage 5 kg/ha; sprayed after emergence; judged 14 days after treatment
Outline: as §5

[17] = system: cleavers (Galium aparine L.), Ga; experiment: as above; details: dosage 5 kg/ha; sprayed after emergence; judged 14 days after treatment
Outline: as §5

CCCNC(=O)c1nc2ccccc2nc1C(=O)Nc1c(CC)ccc(Cl)c1CC [compound 1306]
5 (Crop-killing rate is 100%.): Phytotoxicity Wh (wheat (Wh)) | Phytotoxicity So (soybean plant (So)) | Phytotoxicity So (soybean plant) | Phytotoxicity Wh (wheat)
5 (Weed-killing rate is 100%.): Pre-emergence treatment Bulrush (herbicidal effect) [1] | Pre-emergence treatment Barnyard grass (herbicidal effect) [2] | Herbicidal effect At [3] | Herbicidal effect Am [4] | Herbicidal effect Xs [5] | Herbicidal effect Ec [6] | Herbicidal effect Vp [7] | Herbicidal effect Ga [8] | Post-emergence treatment Bulrush (herbicidal effect) [9] | Post-emergence treatment Monochoria (herbicidal effect) [10] | Post-emergence treatment Barnyard grass (herbicidal effect) [11] | Herbicidal effect At [12] | Herbicidal effect Am [13] | Herbicidal effect Xs [14] | Herbicidal effect Ec [15] | Herbicidal effect Vp [16] | Herbicidal effect Ga [17]

CCc1ccc(Cl)c(CC)c1NC(=O)c1nc2ccccc2nc1C(=O)NCC(C)C [compound 1311]
5 (Crop-killing rate is 100%.): Phytotoxicity Wh (wheat (Wh)) | Phytotoxicity So (soybean plant (So)) | Phytotoxicity So (soybean plant) | Phytotoxicity Wh (wheat)
5 (Weed-killing rate is 100%.): Pre-emergence treatment Bulrush (herbicidal effect) [1] | Pre-emergence treatment Barnyard grass (herbicidal effect) [2] | Herbicidal effect At [3] | Herbicidal effect Am [4] | Herbicidal effect Xs [5] | Herbicidal effect Ec [6] | Herbicidal effect Vp [7] | Herbicidal effect Ga [8] | Post-emergence treatment Bulrush (herbicidal effect) [9] | Post-emergence treatment Monochoria (herbicidal effect) [10] | Post-emergence treatment Barnyard grass (herbicidal effect) [11] | Herbicidal effect At [12] | Herbicidal effect Am [13] | Herbicidal effect Xs [14] | Herbicidal effect Ec [15] | Herbicidal effect Vp [16] | Herbicidal effect Ga [17]

CCc1ccc(Cl)c(CC)c1NC(=O)c1nc2ccccc2nc1C(=O)NCC(C)(C)C [compound 1314]
3 (Crop-killing rate is 70-89%.): Phytotoxicity So (soybean plant (So))
4 (Crop-killing rate is 90-99%.): Phytotoxicity Wh (wheat (Wh)) | Phytotoxicity So (soybean plant) | Phytotoxicity Wh (wheat)
4 (Weed-killing rate is 90-99%.): Herbicidal effect Xs [5] | Herbicidal effect Ga [8] | Post-emergence treatment Bulrush (herbicidal effect) [9] | Post-emergence treatment Barnyard grass (herbicidal effect) [11] | Herbicidal effect Xs [14] | Herbicidal effect Ga [17]
5 (Weed-killing rate is 100%.): Pre-emergence treatment Bulrush (herbicidal effect) [1] | Pre-emergence treatment Barnyard grass (herbicidal effect) [2] | Herbicidal effect At [3] | Herbicidal effect Am [4] | Herbicidal effect Ec [6] | Herbicidal effect Vp [7] | Post-emergence treatment Monochoria (herbicidal effect) [10] | Herbicidal effect At [12] | Herbicidal effect Am [13] | Herbicidal effect Ec [15] | Herbicidal effect Vp [16]

CCc1ccc(Cl)c(CC)c1NC(=O)c1nc2ccccc2nc1C(=O)NC1CCCC1 [compound 1315]
5 (Crop-killing rate is 100%.): Phytotoxicity Wh (wheat (Wh)) | Phytotoxicity So (soybean plant (So)) | Phytotoxicity So (soybean plant) | Phytotoxicity Wh (wheat)
5 (Weed-killing rate is 100%.): Pre-emergence treatment Bulrush (herbicidal effect) [1] | Pre-emergence treatment Barnyard grass (herbicidal effect) [2] | Herbicidal effect At [3] | Herbicidal effect Am [4] | Herbicidal effect Xs [5] | Herbicidal effect Ec [6] | Herbicidal effect Vp [7] | Herbicidal effect Ga [8] | Post-emergence treatment Bulrush (herbicidal effect) [9] | Post-emergence treatment Monochoria (herbicidal effect) [10] | Post-emergence treatment Barnyard grass (herbicidal effect) [11] | Herbicidal effect At [12] | Herbicidal effect Am [13] | Herbicidal effect Xs [14] | Herbicidal effect Ec [15] | Herbicidal effect Vp [16] | Herbicidal effect Ga [17]

CCCNC(=O)c1nc2ccccc2nc1C(=O)Nc1cccc(Cl)c1C [compound 1318]
5 (Crop-killing rate is 100%.): Phytotoxicity Wh (wheat (Wh))
5 (Weed-killing rate is 100%.): Pre-emergence treatment Barnyard grass (herbicidal effect) [2] | Herbicidal effect At [3] | Herbicidal effect Am [4] | Herbicidal effect Ec [6] | Herbicidal effect Vp [7] | Post-emergence treatment Monochoria (herbicidal effect) [10] | Herbicidal effect At [12] | Herbicidal effect Am [13] | Herbicidal effect Ec [15] | Herbicidal effect Vp [16] | Herbicidal effect Ga [17]
4 (Crop-killing rate is 90-99%.): Phytotoxicity Wh (wheat)
3 (Crop-killing rate is 70-89%.): Phytotoxicity So (soybean plant (So)) | Phytotoxicity So (soybean plant)
4 (Weed-killing rate is 90-99%.): Pre-emergence treatment Bulrush (herbicidal effect) [1] | Herbicidal effect Xs [5] | Herbicidal effect Ga [8] | Post-emergence treatment Bulrush (herbicidal effect) [9] | Post-emergence treatment Barnyard grass (herbicidal effect) [11] | Herbicidal effect Xs [14]
